Paper PMC5372522, “Bioavailability Comparison of Nine Bioselenocompounds In Vitro and In Vivo” (International Journal of Molecular Sciences, 2017)

Key:
Caco-2 cells [1] = assay: In vitro permeability assay using Caco-2 cell monolayers; assay type: in vitro ADME, human; settings: for permeability in the presence of Met: with 10 mM Met versus without
Procedure: The bioselenocompounds were evaluated and compared in accordance with the standard protocol of the in vitro permeability assay using Caco-2 cells.
Figure 3 Permeability from the apical side to the basolateral side of Caco-2 cells. The permeability of the nine bioselenocompounds was compared (a). A 500 μL aliquot of fresh medium containing 1 μg Se/mL of each bioselenocompound was poured into the insert and the medium in the lower chamber was collected after 90 min. Values and bars are means ± SD for 3 wells. Statistical analysis was performed by the Tukey test. […] The effects of Met on the permeability of SeMet and MeSeCys were evaluated (b). Hatched and solid bars represent with and without 10 mM Met, respectively. Points and bars are means ± SD for 3 wells. Statistical analysis include the one-way analysis of variance followed by the Student’s t-test. The level of significance was set at p < 0.05, and is indicated by an asterisk (*).
Confluent Caco-2 cells at the cell density of around 20,000 cells/cm^2 were harvested by trypsinization and suspended in basal medium (Corning, Corning, NY, USA) containing MITO+ Serum Extender (Corning) at the cell density of 4 × 10^5 cells/mL. A 0.5 mL aliquot of the cell suspension was seeded on the inserts of a Falcon 24-Multiwell Insert System (Corning). The inserts were transferred onto a 24-well plate that contained 1 mL of basal medium, and incubation was carried out for 24 h. Then, the basal medium was carefully removed from the wells and the inserts, and 1.0 and 0.5 mL aliquots of the differentiation medium (Entero-STIM) containing MITO+ Serum Extender (Corning) were added to the wells and the inserts, respectively. The plate was incubated for another 3 days to induce the formation of a monolayer of differentiated Caco-2 cells. The medium was carefully removed from the inserts and the inserts were washed with transport buffer (HBSS + 10 mM HEPES, pH 7.4). Then, a 350 μL aliquot of each Se compound solution in transport buffer or this solution with 10 mM L-methionine (Wako) was added to the insert chamber. These inserts were transferred onto a plate and a 50 μL aliquot was withdrawn from the chamber of each insert for measurement of the initial concentration of the donor chamber. One milliliter of transfer buffer was added to the plate wells and the plate was incubated on an orbital shaker at 37 °C for 90 min in a CO2 incubator. The transport buffer in the lower chamber was collected to determine Se concentration 90 min after the incubation. Se concentrations were measured by an inductively coupled plasma mass spectrometer (ICP-MS, Agilent 7700cx, Agilent, Hachiouji, Japan). The Se compound solution in the chamber of each insert was removed and a 300 μL aliquot of 300 μM Lucifer Yellow (LY) solution was added to the upper chamber. Then, the concentration of LY that permeated the lower chamber was determined by a fluorescence photometer (excitation wavelength: 485 nm, emission wavelength: 538 nm). Monolayers producing 0.3%–2.0% LY flux were recognized as intact monolayers of differentiated Caco-2 cells. Monolayers with flux exceeding 2.0% were excluded from the experiment.

[2] = tested on: selenoprotein P (SELENOP); assay: Bioavailability in vivo: recovery of serum SELENOP in Se-deficient rats by LC-ICP-MS; settings: oral 10 μg Se/rat once a day for 2 days, serum 24 h after administration
Procedure: (§1) Two major serum selenoproteins were detected by LC-ICP-MS (Figure 4a). The peak detected at the retention time of 11.0 min was assigned to extracellular glutathione peroxidase (GPX3), and the peak at the retention time of 13.5 min was assigned to selenoprotein P (SELENOP) according to our previous literature. The abbreviations of the selenoproteins (GPX3 and SELENOP) were adopted in accordance with the latest nomenclature. We used the recovery amounts of serum selenoproteins in Se-deficient rats as the index of Se bioavailability when a selenocompound was administered to an Se-deficient rat. […] Sera sampled from rats administered each bioselenocompound were analyzed for the recovery of Se in the form of selenoproteins by LC-ICP-MS, and their bioavailabilities, namely, the assimilation of Se into GPX3 and SELENOP, are summarized in Figure 4c,d, respectively. Coinciding with a previous study, SELENOP was more efficiently recovered than GPX3 in the Se-deficient rats 24 h after the repletion of the bioselenocompounds except for TMSe^+. There were no significant differences in the recovery of GPX3 among all the bioselenocompounds except for TMSe^+ (Figure 4c). As SELENOP was more efficiently recovered, the recovery of SELENOP by all the bioselenocompounds except TMSe^+ was more obvious than that of GPX3 (Figure 4d). […] Therefore, there were no significant differences in the bioavailability in vivo among all the bioselenocompounds except TMSe^+.
(§2) Specific pathogen free (SPF) male Wistar rats (4 weeks of age) were purchased from Japan SLC (Shizuoka, Japan) and were housed in a humidity-controlled room maintained at 25 ± 2 °C with a 12 h light-dark cycle. The rats were fed a commercial diet (MF, Oriental Yeast Co., Ltd., Tokyo, Japan) and tap water ad libitum. After a one-week acclimation period, diet and water were changed to a Se-deficient diet (Oriental Yeast) and Milli-Q water (18.3 MΩ·cm), respectively. The rat fed the Se-deficient diet and the Milli-Q water for 3 weeks was used as an Se-deficient rat. The rats continuously fed the commercial diet and tap water served as the positive control.
(§3) The Se-deficient rats were orally administered each Se compound in saline at a dose of 10 μg Se/rat once a day for 2 consecutive days. The saline-administered rats served as the negative control. All the rats were sacrificed 24 h after administration by exsanguination under anesthesia. Non-heparinized blood was collected and clotted blood was centrifuged at 1600× g for 10 min to obtain serum. A 20 μL aliquot of the serum was applied to an HPLC coupled with an ICP-MS to analyze the distribution of Se. […]

[3] = tested on: extracellular glutathione peroxidase (GPX3); assay: Bioavailability in vivo: recovery of serum GPX3 in Se-deficient rats by LC-ICP-MS; settings: oral 10 μg Se/rat once a day for 2 days, serum 24 h after administration
Procedure: as §1, §2, §3

[4] = set-up: method as in PMID 6076213; settings: selenyl group versus sulfhydryl group; cited from earlier work
Caco-2 cells [5] = assay: Cell viability assay (CellTiter 96 Aqueous One) in Caco-2 cells; settings: 6 h exposure; for dose at or above which cell viability was significantly reduced: p < 0.05
Procedure: (§4) Caco-2 cells were used in the in vitro permeability assay in the next experiment, and the cytotoxicity of bioselenocompounds was assayed 6 h after exposure to evaluate the harmful effects of bioselenocompounds on the cells. The cytotoxicity and/or proliferative effects of bioselenocompounds on HepG2 cells were analyzed 24 and 48 h after exposure.
(§5) A human colon carcinoma cell line (Caco-2) and a human hepatocyte carcinoma cell line (HepG2) were obtained from Riken BioResource Center (Wako, Japan). The composition of the passaging medium for Caco-2 or HepG2 was Eagle’s Minimum Essential Medium (MEM) with 20% FBS, 1% non-essential amino acid (NEAA), and 1% penicillin-streptomycin, or Dulbecco’s Modified Eagle’s Medium (DMEM) with 10% FBS and 1% penicillin-streptomycin, respectively. Caco-2 cells were seeded on a 96-well plate at 5500 cells/well and incubation was carried out for 2 days. […] Cell viability was determined by the CellTiter 96® Aqueous One Solution Cell Proliferation Assay (Promega, Madison, WI, USA) based on mitochondrial respiratory activity. HepG2 cells were seeded on a 96-well plate at 5000 cells/well and incubation was carried out for 1 day. Then, the cells were exposed to a Se compound, and cell viability was determined by using the same protocol as that mentioned above.

HepG2 cells = assay: Cell viability / proliferation assay (CellTiter 96 Aqueous One) in HepG2 cells; settings: for dose from which toxicity was dose-dependent: 24 and 48 h exposure; for dose at which cytotoxicity / reduced cell viability was seen / effect on cell viability / proliferation: 48 h exposure; for effect on cell proliferation: 24 h exposure
Procedure: as §4, §5

[6] = set-up: method as in PMID 26243445; settings: cited from earlier work
Caco-2 and HepG2 cells = assay: Proliferative effect under standard culture conditions for Caco-2 and HepG2 cells; assay type: cell-based, human; settings: data not shown
Procedure: as §5

[7] = Caco-2 monolayer, 1 μg Se/mL, 90 min, mean ± SD for 3 wells

## C[Se+](C)C.[I-] [TMSe^+, Trimethylselenonium iodide]
Caco-2 cells [1]; Caco-2
  percentage permeation: 3% ± 0.42%
[2]
  recovery of serum SELENOP (assimilation of Se): did not have any apparent effects
[3]
  recovery of serum GPX3 (assimilation of Se): did not have any apparent effects

## C[Se]C1OC(CO)C(O)C(O)C1NC(C)=O (stereo not drawn) [SeSug1, Se-methylseleno-N-acetylgalactosamine]
[2]
  recovery of serum SELENOP (assimilation of Se): equivalent effect to selenite
[3]
  recovery of serum GPX3 (assimilation of Se): equivalent effect to selenite

## N[C@@H](CS)C(=O)O [Cys]
[4]
  pKa: 8.3

## O=[Se]([O-])[O-].[Na+].[Na+] [selenite, Sodium selenite]
Caco-2 cells [1]; [7]
  percentage permeation: 3.4% ± 0.066%
[2]
  recovery of serum SELENOP (assimilation of Se): recovery of both selenoproteins was observed
Caco-2 cells [5]
  dose at or above which cell viability was significantly reduced: ≥ 8.0 μg Se/mL
[3]
  recovery of serum GPX3 (assimilation of Se): recovery of both selenoproteins was observed
HepG2 cells
  dose from which toxicity was dose-dependent: ≥ 0.8 μg Se/mL

## N#C[Se-].[K+] [SeCN^−, potassium selenocyanate]
[6]
  toxicity relative to selenite: less toxic than selenite
Caco-2 cells [1]; [7]
  percentage permeation: 3.8% ± 0.44%
[2]
  recovery of serum SELENOP (assimilation of Se): comparable to selenite
[3]
  recovery of serum GPX3 (assimilation of Se): comparable to selenite
HepG2 cells
  dose at which cytotoxicity / reduced cell viability was seen: 80 μg Se/mL

## CSCC[C@H](N)C(=O)O [Met, L-methionine]
Caco-2 and HepG2 cells
  proliferative effects: no proliferative effects

## S-methylcysteine [MeCys]
Caco-2 and HepG2 cells
  proliferative effects: no proliferative effects

## N[C@@H](C[Se][Se]C[C@H](N)C(=O)O)C(=O)O [SeCys2, L-selenocystine]
Caco-2 cells [5]
  dose at or above which cell viability was significantly reduced: ≥ 0.8 μg Se/mL
HepG2 cells
  dose from which toxicity was dose-dependent: ≥ 0.4 μg Se/mL

## Lucifer Yellow [LY, reference compound]
Caco-2 cells [1]; Caco-2
  percentage permeation: 0.81% ± 0.36%

## C[Se]CC[C@H](N)C(=O)O [SeMet, seleno-L-methionine]
Caco-2 cells [1]; Caco-2 monolayer
  permeability in the presence of Met: reduced
HepG2 cells
  effect on cell proliferation: stimulated the proliferation
  effect on cell viability / proliferation: marginal cytotoxicity rather than a proliferative effect

## C[Se]C[C@H](N)C(=O)O [MeSeCys, Se-Methylseleno-L-cysteine]
Caco-2 cells [1]; Caco-2 monolayer
  permeability in the presence of Met: reduced
Caco-2 cells [5]; dose-dependent
  dose from which cell viability was significantly increased (proliferation): ≥ 0.8 μg Se/mL
HepG2 cells
  effect on cell proliferation: stimulated the proliferation
  dose at which cytotoxicity / reduced cell viability was seen: ≥ 40 μg Se/mL
  effect on cell viability / proliferation: still induced the cell proliferation at low doses

## N[C@@H](C[SeH])C(=O)O [SeCys, selenocysteine]
[4]
  pKa: 5.2
